Assay results reported in PMC5336394 (Structure (London, England : 1993), 2017).

Test system: CypA
Assay: HA peptide isomerization
Format: biochemical
Settings: Pro2 of the HA peptide

For YPTDVPDYA [HA], the “isomerization at Pro2” value was “not isomerized by CypA”.
